ChEMBL document CHEMBL5303304, “EUbOPEN Chemogenomics Library - IncuCyte” (2023)

Legend:
Assay type in all cases: toxicity, cell-based
Fibroblast = test: Incucyte cell viability with human fibroblast; settings: 10 µM, compound concentration 10 uM
HEK-293T = test: Incucyte cell viability with HEK293T; settings: human, 10 µM, compound concentration 10 uM
U2OS = test: Incucyte cell viability with U2OS; settings: human, 10 µM, compound concentration 10 uM
Also: unitless GR value; below 1 slowed growth and below 0 cell loss.

Row | Structure (SMILES) | Growth Rate (Fibroblast; 0 h, replicate number 1) | Growth Rate (Fibroblast; 6 h, replicate number 1) | Growth Rate (Fibroblast; 6 h, replicate number 2) | Growth Rate (Fibroblast; 12 h, replicate number 1) | Growth Rate (Fibroblast; 12 h, replicate number 2) | Growth Rate (Fibroblast; 18 h, replicate number 1) | Growth Rate (Fibroblast; 18 h, replicate number 2) | Growth Rate (Fibroblast; 24 h, replicate number 1) | Growth Rate (Fibroblast; 24 h, replicate number 2) | Growth Rate (HEK-293T; 6 h, replicate number 2) | Growth Rate (HEK-293T; 12 h, replicate number 2) | Growth Rate (HEK-293T; 18 h, replicate number 1) | Growth Rate (HEK-293T; 18 h, replicate number 2) | Growth Rate (HEK-293T; 24 h, replicate number 1) | Growth Rate (HEK-293T; 24 h, replicate number 2) | Growth Rate (U2OS; 12 h, replicate number 2) | Growth Rate (U2OS; 18 h, replicate number 1) | Growth Rate (U2OS; 18 h, replicate number 2) | Growth Rate (U2OS; 24 h, replicate number 2) | Growth Rate (U2OS; 0 h, replicate number 1) | other results
1 | CCCS(=O)(=O)Nc1ccc(F)c(Nc2ncnc3cnc(-n4cnc(C)c4)nc23)c1F | -0.99 | 0.75 | 0.4 | 0.52 | 0.62 | 0.53 | 0.69 | 0.53 | 0.77 | 0.5 | 0.72 | 0.75 | 0.73 | 0.71 | 0.8 | 0.63 | 0.78 | 0.84 | 0.67 |  | Growth Rate (HEK-293T; 0 h, replicate number 1): -0.79; Growth Rate (HEK-293T; 12 h, replicate number 1): 0.77; Growth Rate (U2OS; 6 h, replicate number 1): 0.75; Growth Rate (U2OS; 6 h, replicate number 2): 0.61; Growth Rate (U2OS; 12 h, replicate number 1): 0.7; Growth Rate (U2OS; 24 h, replicate number 1): 0.97
2 | CCN(CC)CCO[C@H]1CC[C@@]2(C)C(=CC[C@@H]3[C@@H]2CC[C@]2(C)C(=O)CC[C@@H]32)C1.Cl |  | 0.34 |  | -0.34 | -0.05 | -0.18 | -0.06 | -0.25 | -0.11 | 0.24 | 0.31 | 0.45 | 0.42 | 0.53 | 0.52 |  |  |  |  | 0.56 | Growth Rate (HEK-293T; 6 h, replicate number 1): 0.35; Growth Rate (HEK-293T; 12 h, replicate number 1): 0.32; Growth Rate (U2OS; 6 h, replicate number 1): 0.77; Growth Rate (U2OS; 24 h, replicate number 1): 0.91
3 | CNS(=O)(=O)c1ccc(N(C)C)c(Nc2ncnc3cc(OC)c(OC)cc23)c1 | -1 |  |  |  | 0.32 | 0.69 | 0.4 | 0.51 | 0.29 | 0.92 | 0.6 | 0.88 | 0.42 | 0.79 | 0.47 | 0.6 | 0.85 | 0.39 | 0.71 | -1 | Growth Rate (HEK-293T; 0 h, replicate number 1): -0.66; Growth Rate (HEK-293T; 0 h, replicate number 2): 0.17; Growth Rate (U2OS; 6 h, replicate number 2): 0.65; Growth Rate (U2OS; 12 h, replicate number 1): 0.84; Growth Rate (U2OS; 24 h, replicate number 1): 0.8
4 | OC(c1ccc(-c2ccc(CN3CCN(Cc4ccncc4)CC3)cc2)c(F)c1)(C(F)(F)F)C(F)(F)F | 0.65 | -0.31 | -0.55 | 0.07 | -0.38 | 0.24 | -0.18 | 0.39 | -0.02 | 0.22 | 0.08 | 0.02 | 0.23 | 0.09 | 0.29 |  | 0.93 | 0.78 | 0.71 | 0.44 | Growth Rate (HEK-293T; 0 h, replicate number 2): -0.93; Growth Rate (HEK-293T; 6 h, replicate number 1): -0.1; Growth Rate (HEK-293T; 12 h, replicate number 1): -0.03; Growth Rate (U2OS; 6 h, replicate number 1): 0.85; Growth Rate (U2OS; 6 h, replicate number 2): 0.88; Growth Rate (U2OS; 12 h, replicate number 1): 0.84
5 | CC(C)(C)C(=O)NCc1ccc(Cl)c(C(=O)Nc2ncc[nH]2)c1 [LY-3031207] |  | 0.85 | -0.3 |  | 0.86 |  |  | 0.89 |  |  |  |  |  |  |  | 0.95 |  | 0.97 | 0.94 | 0.65 | Growth Rate (Fibroblast; 0 h, replicate number 2): 0.1; Growth Rate (HEK-293T; 0 h, replicate number 1): 0.13; Growth Rate (HEK-293T; 0 h, replicate number 2): -0.13
6 | CN(C)C/C=C/C(=O)Nc1ccc(C(=O)Nc2cccc(Nc3ncc(Cl)c(-c4c[nH]c5ccccc45)n3)c2)cc1 |  |  |  |  |  |  |  |  | 0.7 |  |  |  |  |  |  | 0.57 | 0.29 | 0.55 | 0.28 | -1 | Growth Rate (HEK-293T; 0 h, replicate number 2): -0.53; Growth Rate (U2OS; 24 h, replicate number 1): 0.16
7 | CCCCC(C)(O)C/C=C/[C@H]1[C@H](O)CC(=O)[C@@H]1CCCCCCC(=O)O (stereo not given in full) [MISOPROSTOL ACID] | -1 |  |  | 0.98 |  | 0.86 |  |  | 0.97 |  |  |  |  |  |  | 0.94 |  |  |  |  | Growth Rate (Fibroblast; 0 h, replicate number 2): -0.92; Growth Rate (HEK-293T; 0 h, replicate number 1): -0.42; Growth Rate (HEK-293T; 0 h, replicate number 2): -0.77; Growth Rate (U2OS; 0 h, replicate number 2): 0.49
8 | Cc1cc(Nc2ncc(Cl)c(Nc3ccccc3S(=O)(=O)C(C)C)n2)c(OC(C)C)cc1C1CCNCC1 [CERITINIB] | -0.31 |  | -1 | -1 | -0.99 | -0.92 | -0.93 | -0.63 | -0.84 | -0.87 | -0.49 | -0.4 | -0.35 | -0.33 | -0.26 | -0.82 | -0.64 | -0.68 | -0.61 | 0.45 | Growth Rate (HEK-293T; 6 h, replicate number 1): -0.91; Growth Rate (HEK-293T; 12 h, replicate number 1): -0.6; Growth Rate (U2OS; 6 h, replicate number 1): -0.98; Growth Rate (U2OS; 6 h, replicate number 2): -0.96; Growth Rate (U2OS; 12 h, replicate number 1): -0.79; Growth Rate (U2OS; 24 h, replicate number 1): -0.57
9 | COc1ccc(CC(=O)NC(N/C(=N/C#N)Nc2cccc3ncccc23)C(C)(C)C)cc1OC (stereo not given) |  | -0.31 | -1 | -1 | 0.57 | 0.6 | 0.81 |  | 0.59 | 0.89 |  |  | 0.99 |  |  | 0.85 | 0.98 | 0.78 | 0.82 | 0.85 | Growth Rate (U2OS; 6 h, replicate number 1): 0.08; Growth Rate (U2OS; 6 h, replicate number 2): 0.31; Growth Rate (U2OS; 12 h, replicate number 1): 0.96
10 | O=C(Nc1ccc(-n2nc(C(F)(F)F)cc2C(F)(F)F)cc1)c1ccncc1F | -0.09 | 0.37 | -1 | -1 | 0.14 |  | 0.72 | 0.81 | 0.69 | -0.25 | 0.24 | 0.25 | 0.42 | 0.31 | 0.46 | 0.63 | 0.8 | 0.66 | 0.77 |  | Growth Rate (HEK-293T; 6 h, replicate number 1): -0.04; Growth Rate (HEK-293T; 12 h, replicate number 1): 0.33; Growth Rate (U2OS; 0 h, replicate number 2): -1; Growth Rate (U2OS; 6 h, replicate number 1): -0.16; Growth Rate (U2OS; 6 h, replicate number 2): 0.41; Growth Rate (U2OS; 12 h, replicate number 1): 0.54; Growth Rate (U2OS; 24 h, replicate number 1): 0.69
